Measured values published in the NIST ThermoML archive (doi:10.1021/acs.jced.5b00599).
± gives the expanded uncertainty stated by the source.

Conditions: Gas, Oscillating disk viscometry

O [water]
Conditions | viscosity [mPa·s]
297.33 K, Mass density=0.092 kg/m3 | 0.00963 ± 0.00038
297.76 K, Mass density=0.023 kg/m3 | 0.009649 ± 0.00038
298.16 K, Mass density=0.092 kg/m3 | 0.009654 ± 0.00038
298.69 K, Mass density=0.129 kg/m3 | 0.009676 ± 0.00038
298.99 K, Mass density=0.129 kg/m3 | 0.009697 ± 0.00038
299.38 K, Mass density=0.018 kg/m3 | 0.009722 ± 0.00038
300.35 K, Mass density=0.018 kg/m3 | 0.009746 ± 0.00038
301.55 K, Mass density=0.023 kg/m3 | 0.009792 ± 0.00038
310.44 K, Mass density=0.129 kg/m3 | 0.01008 ± 0.00039
311.12 K, Mass density=0.023 kg/m3 | 0.01011 ± 0.00039
311.13 K, Mass density=0.092 kg/m3 | 0.0101 ± 0.00039
311.52 K, Mass density=0.018 kg/m3 | 0.01013 ± 0.00039
325.16 K, Mass density=0.092 kg/m3 | 0.01059 ± 0.0004
325.62 K, Mass density=0.023 kg/m3 | 0.01063 ± 0.0004
326.81 K, Mass density=0.129 kg/m3 | 0.01064 ± 0.0004
327.19 K, Mass density=0.018 kg/m3 | 0.01067 ± 0.0004
338.27 K, Mass density=0.129 kg/m3 | 0.01104 ± 0.00041
338.47 K, Mass density=0.023 kg/m3 | 0.01107 ± 0.00041
339.05 K, Mass density=0.018 kg/m3 | 0.01109 ± 0.00041
339.49 K, Mass density=0.092 kg/m3 | 0.01109 ± 0.00041
352.03 K, Mass density=0.092 kg/m3 | 0.01154 ± 0.00042
352.69 K, Mass density=0.018 kg/m3 | 0.01158 ± 0.00042
352.79 K, Mass density=0.129 kg/m3 | 0.01156 ± 0.00042
352.84 K, Mass density=0.023 kg/m3 | 0.01158 ± 0.00042
365.89 K, Mass density=0.092 kg/m3 | 0.01204 ± 0.00044
366.46 K, Mass density=0.129 kg/m3 | 0.01205 ± 0.00044
366.97 K, Mass density=0.018 kg/m3 | 0.01208 ± 0.00044
367.44 K, Mass density=0.023 kg/m3 | 0.0121 ± 0.00044
380.14 K, Mass density=0.092 kg/m3 | 0.01257 ± 0.00045
380.24 K, Mass density=0.092 kg/m3 | 0.01257 ± 0.00045
380.61 K, Mass density=0.129 kg/m3 | 0.01257 ± 0.00045
380.86 K, Mass density=0.018 kg/m3 | 0.0126 ± 0.00045
380.91 K, Mass density=0.129 kg/m3 | 0.0126 ± 0.00045
381.03 K, Mass density=0.023 kg/m3 | 0.0126 ± 0.00045
382.98 K, Mass density=0.023 kg/m3 | 0.01267 ± 0.00045
384.22 K, Mass density=0.018 kg/m3 | 0.01273 ± 0.00045
394.56 K, Mass density=0.092 kg/m3 | 0.01311 ± 0.00046
394.75 K, Mass density=0.129 kg/m3 | 0.0131 ± 0.00046
394.87 K, Mass density=0.018 kg/m3 | 0.01313 ± 0.00046
395.16 K, Mass density=0.023 kg/m3 | 0.01312 ± 0.00046
408.37 K, Mass density=0.092 kg/m3 | 0.01363 ± 0.00047
408.69 K, Mass density=0.129 kg/m3 | 0.01365 ± 0.00047
409.25 K, Mass density=0.023 kg/m3 | 0.01365 ± 0.00047
410.22 K, Mass density=0.018 kg/m3 | 0.0137 ± 0.00047
422.63 K, Mass density=0.092 kg/m3 | 0.01418 ± 0.00049
423.17 K, Mass density=0.129 kg/m3 | 0.01421 ± 0.00049
423.35 K, Mass density=0.023 kg/m3 | 0.01419 ± 0.00049
423.87 K, Mass density=0.018 kg/m3 | 0.01423 ± 0.00049
437.65 K, Mass density=0.092 kg/m3 | 0.01479 ± 0.0005
437.93 K, Mass density=0.129 kg/m3 | 0.01479 ± 0.0005
438.48 K, Mass density=0.023 kg/m3 | 0.01478 ± 0.0005
438.75 K, Mass density=0.018 kg/m3 | 0.01482 ± 0.0005
466.44 K, Mass density=0.092 kg/m3 | 0.01596 ± 0.00058
466.96 K, Mass density=0.129 kg/m3 | 0.01598 ± 0.00058
468.21 K, Mass density=0.018 kg/m3 | 0.01601 ± 0.00058
468.74 K, Mass density=0.023 kg/m3 | 0.01598 ± 0.00058
496.27 K, Mass density=0.023 kg/m3 | 0.0171 ± 0.00061
496.94 K, Mass density=0.092 kg/m3 | 0.01723 ± 0.00061
497.01 K, Mass density=0.129 kg/m3 | 0.01727 ± 0.00061
497.08 K, Mass density=0.018 kg/m3 | 0.01723 ± 0.00061
